Experimental data from ChEMBL document CHEMBL1201862, “PubChem BioAssay data set” (2004).
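Dose response: 5 concentrations. Exposure: 48 h. Format: 96-well plates. Endpoint: linear interpolation; highest concentration if not reached. GI50: concentration for 50% inhibition of growth.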 Active and inactive are the calls of the source. Rule as the data show it: active = GI50 up to about 1.1 µM and inactive = higher.

Tests used:
Experiment in all cases: NCI tumour cell line growth inhibition, 48 h
[1] = tested on: NCI-H460
[2] = tested on: HL-60
[3] = tested on: NCI-H226
[4] = tested on: OVCAR-3
[5] = tested on: SK-MEL-2
[6] = tested on: MCF7
[7] = tested on: NCI-H23
[8] = tested on: HCT-116
[9] = tested on: HT-29
[10] = tested on: SNB-19
[11] = tested on: HCC 2998
[12] = tested on: SR
[13] = tested on: SK-MEL-5
[14] = tested on: SK-MEL-28
[15] = tested on: SNB-75
[16] = tested on: HOP-62
[17] = tested on: BT-549
[18] = tested on: SN12C
[19] = tested on: MDA-MB-435
[20] = tested on: NCI-H522
[21] = tested on: K562
[22] = tested on: DLD-1
[23] = tested on: SF-539
[24] = tested on: HOP-92
[25] = tested on: SW-620
[26] = tested on: UACC-257
[27] = tested on: U-251
[28] = tested on: COLO 205
[29] = tested on: 786-0
[30] = tested on: DU-145
[31] = tested on: HOP-18
[32] = tested on: MOLT-4
[33] = tested on: SK-OV-3
[34] = tested on: LXFL 529
[35] = tested on: CCRF-CEM
[36] = tested on: SF-295
[37] = tested on: IGROV-1
[38] = tested on: OVCAR-8
[39] = tested on: OVCAR-4
[40] = tested on: OVCAR-5
[41] = tested on: TK-10
[42] = tested on: HCT-15
[43] = tested on: M19-MEL
[44] = tested on: Hs-578T
[45] = tested on: MDA-MB-231
[46] = tested on: Malme-3M
[47] = tested on: RPMI-8226
[48] = tested on: T47D
[49] = tested on: A549
[50] = tested on: NCI/ADR-RES
[51] = tested on: KM12
[52] = tested on: SF-268
[53] = tested on: UACC-62
[54] = tested on: PC-3
[55] = tested on: M14
[56] = tested on: ACHN
[57] = tested on: EKVX
[58] = tested on: UO-31
[59] = tested on: A498
[60] = tested on: SNB-78
[61] = tested on: DMS-273
[62] = tested on: LOX IMVI
[63] = tested on: CAKI-1
[64] = tested on: DMS-114
[65] = tested on: RXF 393

For `CC(=O)Nc1ccc(C(=O)NN2C(=O)C(Cl)C2c2ccc(Cl)cc2)cc1` (configuration not stated), the GI50 [1] was > 90.4 µM (inactive), the GI50 [2] was > 100 µM (inactive) and the GI50 [3] was > 57.4 µM (inactive). For the same compound, the GI50 [4] was 18.8 µM (inactive), the GI50 [5] was 41.6 µM (inactive) and the GI50 [6] was > 100 µM (inactive). For the same compound, the GI50 [7] was 44.8 µM (inactive), the GI50 [8] was > 100 µM (inactive) and the GI50 [9] was > 100 µM (inactive). The GI50 [10] was 24.2 µM (inactive), the GI50 [11] was > 100 µM (inactive) and the GI50 [12] was > 100 µM (inactive). The GI50 [13] was > 100 µM (inactive), the GI50 [14] was 52.5 µM (inactive) and the GI50 [15] was 16.1 µM (inactive). For the same compound, the GI50 [16] was 22.2 µM (inactive), the GI50 [17] was 72.6 µM (inactive) and the GI50 [18] was 39.6 µM (inactive). The GI50 [19] was > 100 µM (inactive), the GI50 [20] was 38.8 µM (inactive) and the GI50 [21] was > 100 µM (inactive). The GI50 [22] was > 100 µM (inactive), the GI50 [23] was 21.6 µM (inactive) and the GI50 [24] was 26.1 µM (inactive). For the same compound, the GI50 [25] was > 100 µM (inactive), the GI50 [26] was > 100 µM (inactive) and the GI50 [27] was 23.9 µM (inactive). The GI50 [28] was > 100 µM (inactive), the GI50 [29] was 18.7 µM (inactive) and the GI50 [30] was > 100 µM (inactive). The GI50 [31] was 64.4 µM (inactive), the GI50 [32] was > 100 µM (inactive) and the GI50 [33] was 25.4 µM (inactive). The GI50 [34] was 50.6 µM (inactive), the GI50 [35] was > 100 µM (inactive) and the GI50 [36] was 20.6 µM (inactive). The GI50 [37] was 37.3 µM (inactive), the GI50 [38] was 37 µM (inactive) and the GI50 [39] was > 100 µM (inactive). For the same compound, the GI50 [40] was > 74.3 µM (inactive), the GI50 [41] was > 100 µM (inactive) and the GI50 [42] was over 100 µM. For the same compound, the GI50 [43] was > 100 µM (inactive), the GI50 [44] was 8.83 µM (inactive) and the GI50 [45] was 22.1 µM (inactive). The GI50 [46] was > 42.9 µM (inactive), the GI50 [47] was > 100 µM (inactive) and the GI50 [48] was > 100 µM (inactive). The GI50 [49] was > 72.4 µM (inactive), the GI50 [50] was > 100 µM (inactive) and the GI50 [51] was > 100 µM (inactive). For the same compound, the GI50 [52] was 23.3 µM (inactive), the GI50 [53] was > 100 µM (inactive) and the GI50 [54] was > 100 µM (inactive). For the same compound, the GI50 [55] was > 100 µM (inactive), the GI50 [56] was > 57.5 µM (inactive) and the GI50 [57] was > 100 µM (inactive). For the same compound, the GI50 [58] was > 100 µM (inactive).

In the case of `COC(=O)/C(C#N)=C1\NN=NN1CCCN1CCOCC1`, the GI50 [1] is reported as > 100 µM (inactive), the GI50 [3] is reported as > 100 µM (inactive) and the GI50 [4] is reported as > 100 µM (inactive). For the same compound, the GI50 [7] was > 100 µM (inactive), the GI50 [8] was > 100 µM (inactive) and the GI50 [9] was > 100 µM (inactive). The GI50 [10] was > 100 µM (inactive), the GI50 [11] was > 100 µM (inactive) and the GI50 [13] was > 100 µM (inactive). For the same compound, the GI50 [14] was > 100 µM (inactive), the GI50 [15] was > 100 µM (inactive) and the GI50 [18] was > 100 µM (inactive). For the same compound, the GI50 [59] was > 100 µM (inactive), the GI50 [20] was > 100 µM (inactive) and the GI50 [60] was > 100 µM (inactive). For the same compound, the GI50 [21] was > 100 µM (inactive), the GI50 [61] was > 100 µM (inactive) and the GI50 [22] was > 100 µM (inactive). For the same compound, the GI50 [62] was > 100 µM (inactive), the GI50 [23] was > 100 µM (inactive) and the GI50 [24] was > 100 µM (inactive). The GI50 [25] was > 100 µM (inactive), the GI50 [26] was > 100 µM (inactive) and the GI50 [27] was > 100 µM (inactive). For the same compound, the GI50 [28] was > 100 µM (inactive), the GI50 [29] was > 100 µM (inactive) and the GI50 [31] was > 100 µM (inactive). For the same compound, the GI50 [32] was > 100 µM (inactive), the GI50 [33] was > 100 µM (inactive) and the GI50 [34] was > 100 µM (inactive). The GI50 [35] was > 100 µM (inactive), the GI50 [36] was > 100 µM (inactive) and the GI50 [37] was > 100 µM (inactive). The GI50 [38] was > 100 µM (inactive), the GI50 [41] was > 100 µM (inactive) and the GI50 [63] was > 100 µM (inactive). The GI50 [42] was over 100 µM, the GI50 [43] was > 100 µM (inactive) and the GI50 [46] was > 100 µM (inactive). The GI50 [64] was > 100 µM (inactive), the GI50 [47] was > 100 µM (inactive) and the GI50 [49] was > 100 µM (inactive). For the same compound, the GI50 [65] was > 100 µM (inactive), the GI50 [51] was > 100 µM (inactive) and the GI50 [53] was > 100 µM (inactive). The GI50 [55] was > 100 µM (inactive), the GI50 [56] was > 100 µM (inactive) and the GI50 [57] was > 100 µM (inactive). For the same compound, the GI50 [58] was > 100 µM (inactive).
